According to patent publication US4374245A, “8-[3-(6-Fluoro-1,2-benzisoxazol-3-yl)propyl]- 1-phenyl-1,3,8-triazaspiro[4.5]decan-4-one” (Hoechst-Roussel Pharmaceuticals Inc., priority 1982, dated 1983):
Read-outs that look alike come from different tables or passages of the source.

Key:
[1] = system: apomorphine-induced climbing; assay: climbing mice assay (apomorphine-induced climbing, antipsychotic activity); assay type: in vivo, CK-1 male mice; conditions: Mus musculus, ip, read-out: Antipsychotic Activity ED50
[2] = system: phenyl-para-quinone induced writhes; assay: animal or person; assay type: in vivo, mice; conditions: Mus musculus, sc, read-out: Analgesic Activity (ED50)

Compound: O=C(CCCN1CCC(O)(c2ccc(Cl)cc2)CC1)c1ccc(F)cc1 [haloperidol]
- ED50 [1]: 0.11 mg/kg

Compound: CC(C)=CCN1CCC2(C)c3cc(O)ccc3CC1C2C (stereo not shown) [pentazocin]
- ED50 [2]: 1.3 mg/kg

Compound: CCC(=O)O[C@](Cc1ccccc1)(c1ccccc1)[C@H](C)CN(C)C [propoxyphene]
- ED50 [2]: 3.9 mg/kg

Compound: CCN1CCCC1CNC(=O)c1cc(S(N)(=O)=O)ccc1OC (stereo not shown) [sulpiride]
- ED50 ([1]; mice, intraperitoneal, 30 minutes prior to apomorphine 1.5 mg/kg subcutaneously, climbing scored at 10, 20 and 30 minutes, linear regression): 4.5 mg/kg
